From the supplement of paper PMC10307832

What was measured:
Assay in all cases: relative viability (nuclei count vs DMSO), 5 days (fraction); higher = more cells survive
Ruboxistaurin = compound: CN(C)C[C@@H]1CCn2cc(c3ccccc32)C2=C(C(=O)NC2=O)c2cn(c3ccccc23)CCO1 [Ruboxistaurin]
Method in brief: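 Viability was defined as treated-well nuclei divided by vehicle-well nuclei, with the median taken over replicate plates. Cells from lung cancer lines sat overnight at 37 °C in 1536-well plates, received five √10-spaced library-drug doses by pinning on vehicle-anchored plates, and grew 5 days without medium change before one-step fixation, permeabilisation and Hoechst staining, 4× imaging and MetaXpress nuclear counts. Only plates with control CV under 25% and at least one doubling were kept.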

[1] = compound: CN(C)C[C@@H]1CCn2cc(c3ccccc32)C2=C(C(=O)NC2=O)c2cn(c3ccccc23)CCO1 [Ruboxistaurin] + CC1(C)CCC(c2ccc(Cl)cc2)=C(CN2CCN(c3ccc(C(=O)NS(=O)(=O)c4ccc(N[C@H](CCN5CCOCC5)CSc5ccccc5)c(S(=O)(=O)C(F)(F)F)c4)cc3)CC2)C1 [Navitoclax] (partner 0.5 µM)
Method in brief: (§1)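 One day after seeding in 1536-well plates, lung cancer cell lines were dosed by pin tool. Dosing was either single-drug or a fixed anchor-drug dose plus five library-drug doses (not always all listed) in √10 steps. After 5 days, nuclei were stained in one fix-and-stain step and counted on 4× images, and relative viability is the nuclei count of treated wells over that of vehicle wells, given as the median of duplicate plates.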

[2] = compound: CN(C)C[C@@H]1CCn2cc(c3ccccc32)C2=C(C(=O)NC2=O)c2cn(c3ccccc23)CCO1 [Ruboxistaurin] + CS(=O)(=O)CCNCc1ccc(-c2ccc3ncnc(Nc4ccc(OCc5cccc(F)c5)c(Cl)c4)c3c2)o1 [Lapatinib] (partner 2 µM)
Method in brief: as §1

[3] = compound: CN(C)C[C@@H]1CCn2cc(c3ccccc32)C2=C(C(=O)NC2=O)c2cn(c3ccccc23)CCO1 [Ruboxistaurin] + Cc1nc(Nc2ncc(C(=O)Nc3c(C)cccc3Cl)s2)cc(N2CCN(CCO)CC2)n1 [Dasatinib] (partner 0.075 µM)
Method in brief: as §1

[4] = compound: CN(C)C[C@@H]1CCn2cc(c3ccccc32)C2=C(C(=O)NC2=O)c2cn(c3ccccc23)CCO1 [Ruboxistaurin] + O=C(CCCCCCC(=O)Nc1ccccc1)NO [Vorinostat] (partner 1 µM)
Method in brief: as §1

Cell Line | relative viability (Ruboxistaurin; 0.08 µM) | relative viability (Ruboxistaurin; 0.8 µM) | relative viability (Ruboxistaurin; 2.53 µM) | relative viability (Ruboxistaurin; 8 µM) | relative viability ([1]; first compound 0.08 µM) | relative viability ([1]; first compound 0.8 µM) | relative viability ([1]; first compound 2.53 µM) | relative viability ([1]; first compound 8 µM) | relative viability ([2]; first compound 0.08 µM) | relative viability ([2]; first compound 0.8 µM) | relative viability ([2]; first compound 2.53 µM) | relative viability ([2]; first compound 8 µM) | relative viability ([3]; first compound 0.08 µM) | relative viability ([3]; first compound 0.8 µM) | relative viability ([3]; first compound 2.53 µM) | relative viability ([3]; first compound 8 µM) | relative viability ([4]; first compound 0.08 µM) | relative viability ([4]; first compound 0.8 µM) | relative viability ([4]; first compound 2.53 µM) | relative viability ([4]; first compound 8 µM)
EMC-BAC-2 | 1.05 | 0.957 | 0.95 | 0.84 | 1.28 | 1.08 | 1.11 | 1.05 | 0.879 | 0.856 | 0.866 | 0.802 | 0.328 | 0.262 | 0.256 | 0.138 | 0.53 | 0.461 | 0.523 | 0.384
NCI-H661 | 1.03 | 0.962 | 1.05 | 1.04 | – | – | – | – | 0.593 | 0.451 | 0.639 | 0.623 | 0.982 | 0.776 | 1.01 | 1.04 | 0.869 | 0.773 | 0.781 | 0.94
LU99A | 0.956 | 0.858 | 1.04 | 0.852 | 0.883 | 0.71 | 0.798 | 0.716 | 1.09 | 0.967 | 0.94 | 0.761 | 0.412 | 0.436 | 0.589 | 0.507 | 0.497 | 0.442 | 0.433 | 0.416
LK-2 | 0.952 | 1 | 1.12 | 0.833 | 0.893 | 0.792 | 0.875 | 0.674 | 1.07 | 0.866 | 0.938 | 0.739 | 0.283 | 0.237 | 0.264 | 0.242 | 0.362 | 0.323 | 0.33 | 0.222
NCI-H3122 | 0.98 | 0.963 | 1.01 | 1.07 | 1.02 | 0.919 | 1 | 1.09 | 1.02 | 1.02 | 1 | 1.08 | 0.953 | 0.922 | 0.753 | 0.96 | 1.14 | 0.948 | 1.03 | 1.3
NCI-H1563 | 1 | 0.947 | 1.07 | 0.886 | – | – | – | – | 1.06 | 0.945 | 1.04 | 0.952 | 0.499 | 0.502 | 0.465 | 0.404 | – | – | – | –
NCI-H358 | 1.14 | 0.881 | 0.984 | 0.712 | – | – | – | – | 0.479 | 0.408 | 0.421 | 0.406 | 0.177 | 0.149 | 0.149 | 0.148 | 0.865 | 0.659 | 0.768 | 0.666
IA-LM | 0.959 | 0.79 | 0.981 | 1 | 0.852 | 0.722 | 0.862 | 0.987 | 0.751 | – | 1.07 | 0.789 | – | – | – | – | 1.13 | 0.937 | 0.656 | 0.939
ChaGo-K-1 | 1.06 | 0.976 | 1.06 | 0.961 | 1.38 | 1.08 | 0.925 | 0.703 | – | – | – | – | 0.564 | 0.611 | 0.636 | 0.478 | 0.795 | 0.712 | 0.875 | 0.853
NCI-H2342 | 1.02 | 0.915 | 1.06 | 1.04 | – | – | – | – | – | – | – | – | 0.364 | 0.312 | 0.303 | 0.277 | 0.888 | 0.69 | 0.768 | 0.93
NCI-H441 | 1.14 | 0.936 | 1.19 | 0.947 | 0.682 | 0.464 | 0.928 | 0.66 | – | – | – | – | 0.538 | 0.525 | 0.494 | 0.577 | 0.953 | 0.989 | 0.787 | 0.724
ABC-1 | 1.16 | 0.951 | 1.16 | 0.89 | – | – | – | – | 1.48 | 1.01 | 1.06 | 1.47 | 0.638 | 0.56 | 0.633 | 0.465 | 1.22 | 1.11 | 1.27 | 1.07
NCI-H1792 | 1.09 | 0.78 | 0.938 | 0.796 | 0.701 | 0.605 | 0.637 | 0.68 | 0.903 | 0.892 | 0.916 | 0.933 | 0.829 | 0.667 | 0.77 | 0.781 | – | – | – | –
HCC-44 | 1.01 | 0.979 | 1.01 | 1.07 | 1.05 | 0.883 | 1.02 | 0.971 | 0.982 | 1 | 1.03 | 1.1 | – | – | – | – | 1.04 | 1.04 | 1.1 | 1.23
NCI-H1703 | 1.19 | 0.697 | 0.876 | 0.724 | 1.14 | 0.992 | 0.991 | 0.525 | 1.08 | 1.06 | 1.09 | 0.678 | – | – | – | – | – | – | – | –
NCI-H522 | 0.949 | 1.05 | 0.869 | 0.892 | – | – | – | – | – | – | – | – | 0.835 | 0.83 | 0.953 | 0.719 | 1.01 | 0.9 | 1.05 | 0.931
SW 900 | 0.897 | 0.897 | 1.14 | 0.958 | – | – | – | – | – | – | – | – | 0.838 | 0.436 | 0.64 | 0.383 | 0.738 | 0.47 | 0.603 | 0.496
NCI-H650 | 1.19 | 0.864 | 0.98 | 1.02 | – | – | – | – | 1.22 | 0.764 | 1.38 | 0.491 | 0.5 | 0.384 | 0.516 | 0.433 | 0.456 | 0.383 | 0.454 | 0.717
LCLC-103H | 0.998 | 0.887 | 0.894 | 0.841 | – | – | – | – | – | – | – | – | 0.641 | 0.386 | 0.482 | 0.389 | 0.823 | 0.743 | 0.807 | 0.75
